Assay results: patent US11331327B2, “Antibacterial use of halogenated salicylanilides” (UNION therapeutics A/S, priority 2014, dated 2022)
In brackets after ≈: the same amount, converted by molar mass. Like-named read-outs stand apart in the source and are kept apart here.

System: S. aureus clinical isolates and S. aureus ATCC 29213
Assay: MIC assay according to CLSI criteria, Example 2, S. aureus strains
Type: cell-based, Staphylococcus aureus
Settings: Staphylococcus aureus, read-out: MIC
Experimental: Strains were conserved in Luria Bertani (LB) Broth (S. aureus) or Brain Heart Infusion (BHI) (S. pyogenes) supplemented with glycerol 15% (v/v) at −80° C., and reactivated by isolation on LB (S. aureus) or BHI (S. pyogenes) agar plates. Strains were cultivated in Mueller Hinton (MH) Broth-cation adjusted (S. aureus) or BHI (S. pyogenes). All strains were cultivated aerobically (microaerobically for S. pyogenes strains) at 37° C.
Bacterial cultures were stopped in their exponential growth phase and plates were inoculated with the approximate concentration of 5×10^5 cells per well. Plates were incubated at 37° C. for 18 hours (S. aureus) or 24 hours (S. pyogenes).

SMILES: CC(=O)O[C@H]1C[C@@]2(C)[C@@H](C[C@@H](O)[C@H]3[C@@]4(C)CC[C@@H](O)[C@@H](C)[C@@H]4CC[C@@]32C)/C1=C(\CCC=C(C)C)C(=O)O [Fusidic acid]
- MIC (ATCC29213, strain 9-1862936): 0.125 µg/mL (≈ 0.242 µM)
- MIC (ATCC29213, strain 9-2625962): 0.25 µg/mL (≈ 0.484 µM)
- MIC (ATCC29213, strain 9-2642158): 0.25 µg/mL (≈ 0.484 µM)
- MIC (ATCC29213, strain 9-2955245): 0.25 µg/mL (≈ 0.484 µM)
- MIC (ATCC29213, strain 9-26422166): 8 µg/mL (≈ 15.5 µM)
- MIC (ATCC29213, strain 000040C): 0.25 µg/mL (≈ 0.484 µM)
- MIC (ATCC29213, strain 000041C): 0.25 µg/mL (≈ 0.484 µM)
- MIC (ATCC29213, strain 000274T): 0.5 µg/mL (≈ 0.968 µM)
- MIC (ATCC29213, strain 114660U): 0.25 µg/mL (≈ 0.484 µM)
- MIC (ATCC29213, strain 115015T): 0.25 µg/mL (≈ 0.484 µM)
- MIC (ATCC29213, strain 115242C): 8 µg/mL (≈ 15.5 µM)
- MIC (ATCC29213, strain 115263C): 0.125 µg/mL (≈ 0.242 µM)
- MIC (ATCC29213, strain 115268C): 0.25 µg/mL (≈ 0.484 µM)
- MIC (ATCC29213, strain 115273C): 0.25 µg/mL (≈ 0.484 µM)
- MIC (ATCC29213, strain 115295C): 0.125 µg/mL (≈ 0.242 µM)
- MIC (ATCC29213, strain 115303C): 0.25 µg/mL (≈ 0.484 µM)
- MIC (ATCC29213, strain 115370U): 0.5 µg/mL (≈ 0.968 µM)
- MIC (ATCC29213, strain 115427C): 0.125 µg/mL (≈ 0.242 µM)
- MIC (ATCC29213, strain 115445C): 0.25 µg/mL (≈ 0.484 µM)
- MIC (ATCC29213, strain 115561C): 0.125 µg/mL (≈ 0.242 µM)
- MIC (ATCC29213, strain 115584D): 0.25 µg/mL (≈ 0.484 µM)
- MIC (ATCC29213, strain 115628T): 8 µg/mL (≈ 15.5 µM)
- MIC (ATCC29213, strain 115690C): 8 µg/mL (≈ 15.5 µM)
- MIC (ATCC29213, strain 115691T): 0.25 µg/mL (≈ 0.484 µM)
- MIC (ATCC29213, strain 115740E): 0.25 µg/mL (≈ 0.484 µM)
- MIC (ATCC29213, strain 115810E): 0.25 µg/mL (≈ 0.484 µM)
- MIC (ATCC29213, strain 115903T): 8 µg/mL (≈ 15.5 µM)
- MIC (ATCC29213, strain 116122T): 0.125 µg/mL (≈ 0.242 µM)
- MIC (ATCC29213, strain ATCC 29213): 0.06 µg/mL (≈ 0.116 µM)
- MIC (ATCC29213, strain E5-1029252): 0.25 µg/mL (≈ 0.484 µM)
- MIC (ATCC29213, strain E5-1029558): 16 µg/mL (≈ 31 µM)
- MIC (ATCC29213, strain E5-1030440): 0.25 µg/mL (≈ 0.484 µM)
- MIC (ATCC29213, strain E5-1030469): 0.125 µg/mL (≈ 0.242 µM)
- MIC (ATCC29213, strain E5-1030472): 0.25 µg/mL (≈ 0.484 µM)
- MIC (ATCC29213, strain E5-1030482): 16 µg/mL (≈ 31 µM)
- MIC (ATCC29213, strain E5-1033076 (first line, r202)): 0.25 µg/mL (≈ 0.484 µM)
- MIC (ATCC29213, strain E5-1033076 (second line, r203)): 0.25 µg/mL (≈ 0.484 µM)
- MIC (ATCC29213, strain E5-1033088): 0.25 µg/mL (≈ 0.484 µM)
- MIC (ATCC29213, strain E5-1033091): 0.03 µg/mL (≈ 0.0581 µM)
- MIC (ATCC29213, strain E5-1035277): 16 µg/mL (≈ 31 µM)
- MIC (ATCC29213, strain E5-1035284): 0.25 µg/mL (≈ 0.484 µM)
- MIC (ATCC29213, strain E5-1035775): > 16 µg/mL
- MIC (ATCC29213, strain E5-1035779): 0.125 µg/mL (≈ 0.242 µM)
- MIC (ATCC29213, strain E5-1037958): 16 µg/mL (≈ 31 µM)
- MIC (ATCC29213, strain E5-1037971): 0.25 µg/mL (≈ 0.484 µM)
- MIC (ATCC29213, strain E5-1038279): 4 µg/mL (≈ 7.74 µM)
- MIC (ATCC29213, strain E5-1038286): 0.25 µg/mL (≈ 0.484 µM)
- MIC (ATCC29213, strain E5-1038294): 0.25 µg/mL (≈ 0.484 µM)
- MIC (ATCC29213, strain E5-1039684): 16 µg/mL (≈ 31 µM)
- MIC (ATCC29213, strain E5-1039697): 0.5 µg/mL (≈ 0.968 µM)
- MIC (ATCC29213, strain E5-1041977): 16 µg/mL (≈ 31 µM)
- MIC (ATCC29213, strain E5-1041979): 0.25 µg/mL (≈ 0.484 µM)
- MIC (ATCC29213, strain E5-1041980): 0.25 µg/mL (≈ 0.484 µM)
- MIC (ATCC29213, strain E5-1041987): 16 µg/mL (≈ 31 µM)
- MIC (ATCC29213, strain E5-1043184): 16 µg/mL (≈ 31 µM)
- MIC (ATCC29213, strain E5-1043668): 1 µg/mL (≈ 1.94 µM)
- MIC (ATCC29213, strain E5-1045179): 0.25 µg/mL (≈ 0.484 µM)
- MIC (ATCC29213, strain E5-1046019): 0.25 µg/mL (≈ 0.484 µM)
- MIC (ATCC29213, strain E5-1046020): 0.25 µg/mL (≈ 0.484 µM)
- MIC (ATCC29213, strain E5-1046039): 0.25 µg/mL (≈ 0.484 µM)
- MIC (ATCC29213, strain E5-1046070): 0.25 µg/mL (≈ 0.484 µM)
- MIC (ATCC29213, strain E5-1046074): 0.125 µg/mL (≈ 0.242 µM)
- MIC (ATCC29213, strain E5-1046085): 8 µg/mL (≈ 15.5 µM)
- MIC (ATCC29213, strain E5-1046096): 0.5 µg/mL (≈ 0.968 µM)
- MIC (ATCC29213, strain E5-1046296): 0.125 µg/mL (≈ 0.242 µM)
- MIC (ATCC29213, strain E5-1046297): 0.125 µg/mL (≈ 0.242 µM)
- MIC (ATCC29213, strain E5-1046298): 0.125 µg/mL (≈ 0.242 µM)
- MIC (ATCC29213, strain E5-1046723): 0.5 µg/mL (≈ 0.968 µM)
- MIC (ATCC29213, strain E5-1047585): 0.25 µg/mL (≈ 0.484 µM)
- MIC (ATCC29213, strain E5-1047606): 8 µg/mL (≈ 15.5 µM)
- MIC (ATCC29213, strain E5-1047924): 0.25 µg/mL (≈ 0.484 µM)
- MIC (ATCC29213, strain E5-1048204): 0.25 µg/mL (≈ 0.484 µM)
- MIC (ATCC29213, strain E5-1048428): 0.5 µg/mL (≈ 0.968 µM)
- MIC (ATCC29213, strain E5-1048654): 0.5 µg/mL (≈ 0.968 µM)
- MIC (ATCC29213, strain E5-1048670): 0.5 µg/mL (≈ 0.968 µM)
- MIC (ATCC29213, strain EEFIC 01): 4 µg/mL (≈ 7.74 µM)
- MIC (ATCC29213, strain EEFIC 02): 4 µg/mL (≈ 7.74 µM)
- MIC (ATCC29213, strain K000772): > 16 µg/mL
- MIC (ATCC29213, strain K000796): 8 µg/mL (≈ 15.5 µM)
- MIC (ATCC29213, strain K000863): 1 µg/mL (≈ 1.94 µM)
- MIC (ATCC29213, strain K000864): 0.25 µg/mL (≈ 0.484 µM)
- MIC (ATCC29213, strain K000866): 8 µg/mL (≈ 15.5 µM)
- MIC (ATCC29213, strain K115498): 0.125 µg/mL (≈ 0.242 µM)
- MIC (ATCC29213, strain K115688): 0.125 µg/mL (≈ 0.242 µM)
- MIC (ATCC29213, strain K115689): 0.125 µg/mL (≈ 0.242 µM)
- MIC (ATCC29213, strain R000019): 0.125 µg/mL (≈ 0.242 µM)
- MIC (ATCC29213, strain R000020): 0.125 µg/mL (≈ 0.242 µM)
- MIC (ATCC29213, strain R000024): 16 µg/mL (≈ 31 µM)
- MIC (ATCC29213, strain U115579): 0.25 µg/mL (≈ 0.484 µM)
- MIC (ATCC 29213 / MRSA, strain MRSA 01): 0.125 µg/mL (≈ 0.242 µM)
- MIC (ATCC 29213 / MRSA, strain MRSA 02): 0.5 µg/mL (≈ 0.968 µM)
- MIC (ATCC 29213 / MRSA, strain MRSA 03): 16 µg/mL (≈ 31 µM)
- MIC (ATCC 29213 / MRSA, strain MRSA 04): 0.25 µg/mL (≈ 0.484 µM)
- MIC (ATCC 29213 / MRSA, strain MRSA 05): 0.125 µg/mL (≈ 0.242 µM)
- MIC (ATCC 29213 / MRSA, strain MRSA 06): 0.125 µg/mL (≈ 0.242 µM)
- MIC (ATCC 29213 / MRSA, strain MRSA 07): 0.25 µg/mL (≈ 0.484 µM)
- MIC (ATCC 29213 / MRSA, strain MRSA 08): 0.125 µg/mL (≈ 0.242 µM)
- MIC (ATCC 29213 / MRSA, strain MRSA 09): 0.25 µg/mL (≈ 0.484 µM)
- MIC (ATCC 29213 / MRSA, strain MRSA 10): 1 µg/mL (≈ 1.94 µM)
- MIC (ATCC 29213 / MRSA, strain MRSA 11): 1 µg/mL (≈ 1.94 µM)
- MIC (ATCC 29213 / MRSA, strain MRSA 12): 4 µg/mL (≈ 7.74 µM)
- MIC (ATCC 29213 / MRSA, strain MRSA 13): 4 µg/mL (≈ 7.74 µM)
- MIC (ATCC 29213 / MRSA, strain MRSA 14): > 16 µg/mL
